In this series the target is T1, Hepatic sodium/bile acid cotransporter (Homo sapiens, UniProt Q14973).
T1 sequence (Q14973 whole entry): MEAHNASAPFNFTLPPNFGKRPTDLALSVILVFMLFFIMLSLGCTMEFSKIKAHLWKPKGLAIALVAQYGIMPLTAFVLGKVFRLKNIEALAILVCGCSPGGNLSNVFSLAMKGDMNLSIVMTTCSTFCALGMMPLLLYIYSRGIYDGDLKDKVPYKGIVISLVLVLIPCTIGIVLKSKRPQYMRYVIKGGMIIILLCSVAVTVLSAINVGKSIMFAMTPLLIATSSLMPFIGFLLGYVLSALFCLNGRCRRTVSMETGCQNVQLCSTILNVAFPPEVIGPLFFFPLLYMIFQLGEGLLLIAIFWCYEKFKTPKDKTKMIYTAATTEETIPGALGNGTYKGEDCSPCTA
Kind of series: TP_TRANSPORTER: uptake in Xenopus laevis oocytes. Format: functional, cell-based. The note with it: oocyte.

The values below come from ChEMBL document CHEMBL2074254, “Substrate specificity of sinusoidal bile acid and organic anion uptake systems in rat and human liver” (Hepatology, 1997).

Regarding `C[C@]12CC[C@@H]3c4ccc(OS(=O)(=O)O)cc4CC[C@H]3[C@@H]1CCC2=O` [ESTRONE SULFURIC ACID], the Activity entry is “substrate [+]”.

As for `C[C@H](CCC(=O)NCC(=O)O)[C@H]1CC[C@H]2[C@@H]3[C@H](O)C[C@@H]4C[C@H](O)CC[C@]4(C)[C@H]3C[C@H](O)[C@]12C` [GLYCOCHOLIC ACID], the Activity result is “substrate [+]”.

In the case of `O=C1OC(c2ccc(O)c(S(=O)(=O)[O-])c2)(c2ccc(O)c(S(=O)(=O)[O-])c2)c2c(Br)c(Br)c(Br)c(Br)c21.[Na+].[Na+]` [SULFOBROMOPHTHALEIN SODIUM], the Activity entry is “substrate [+]”.

With `C[C@H](CCC(=O)NCCS(=O)(=O)O)[C@H]1CC[C@H]2[C@@H]3[C@H](O)C[C@@H]4C[C@H](O)CC[C@]4(C)[C@H]3CC[C@]12C` [TAUROCHENODEOXYCHOLATE], the Activity result is “substrate [+]”.

`C[C@H](CCC(=O)NCCS(=O)(=O)O)[C@H]1CC[C@H]2[C@@H]3[C@@H](O)C[C@@H]4C[C@H](O)CC[C@]4(C)[C@H]3CC[C@]12C` [TAURURSODIOL]: the Activity result was “substrate [+]”.
